From article PMC9098913, “In vitro reconstitution of Escherichia coli divisome activation” (Nature Communications, 2022)
Where two headings read alike, the source gives them in different places.

Key:
[1] = Membrane off-binding rate (koff) of FtsA from FRAP
Description: We could also use the data from these bleaching experiments to quantify the membrane-binding kinetics and diffusion of membrane-bound proteins by analysing the change of the fluorescence profile during recovery.
Equimolar concentrations of Cy3- and Cy5-labelled FtsA, supplemented with 20% unlabelled FtsA were used to study FRET and FRAP. Five pre-bleach frames were acquired, followed by acceptor photobleaching of a rectangular ROI with 40% 641 nm laser power and a dwell size of 1 µs/pixel, 75% overlapping lines. The recovery of the signal or the increase in donor intensity were measured with either two frames or one frame per second.
Bleaching the acceptor dye leads to an increase in the donor intensity, which can be used to quantify the Foerster Resonance energy transfer (FRET)[48]. FRET efficiency was quantified with E%=Ipost/Ipost+Ipre⋅100 , where Ipost is the intensity of the […] and Ipre is the […]. […] To extract the contribution of both processes, we adjusted a routine recently published by Gerganova et al.[33]. In short, the code provides the contribution of both modes of recovery by analysing the shape of the fluorescence recovery profile. […] Contribution of diffusion leads to a change of the slope of the outer borders of the bleached region (S4h right). Thus, by measuring the change of the slope of the border recovery, diffusion and simple on/off binding can be distinguished. We developed “FRAPdiff”, a graphical user interface, which uses the original fit routine by David Rutkowski. It can be used directly on.tiff movies with annotated bleach regions as ImageJ ROIs. In addition, we added optional bleach correction, user selectable projection axis (x or y), and optional mirroring of the recovery profiles, if bleaching was not symmetric. The original fit routine for estimating the recovery and diffusion dynamics can be found at https://github.com/davidmrutkowski/1DReflectingDiffusion. FRAPdiff is available at 10.5281/zenodo.6400639[49] under the GPLv3 open-source license.

FtsZ [2] = conditions: His-tagged FtsA
Procedure: (§1) Co-treadmilling of FtsA with FtsZ relies on the dynamic exchange of FtsA on the membrane. […] To investigate the respective contributions of membrane binding kinetics and FtsA self-interaction on the colocalization dynamics with FtsZ, we wanted to create variants of the two FtsA proteins that are permanently attached to the membrane. […] Accordingly, in these experiments the proteins only differ in their tendency to form oligomers.
(§2) To study colocalization of His-tagged variants of FtsA, 0.5–1 µM of Cy5 labelled His-tagged FtsAs were added to the chamber, incubated for 20 min and washed 6x with reaction buffer. […] To control the density of membrane-bound FtsA, SUVs without and with Tris-NTA lipids were mixed to obtain the respective Tris-NTA concentrations. To perform FRET/FRAP experiments, equimolar concentrations of Cy3 and Cy5 labelled His-tagged FtsAs (total 0.5–1 µM) or His-SUMO-Cys were added to a chamber and treated as above. […] FRAP experiments were performed as described before.
Time-lapse videos were first intensity-corrected and contrast-enhanced to avoid bleaching effects and simplify subsequent analysis. To remove contributions of X–Y drift, the videos were processed with the Linear Stack Alignment with SIFT plugin. Proper alignment was checked with the 3TP align plugin (J. A. Parker; Beth Israel Deaconess Medical Center, Boston). Subsequently, regions of interest (ROIs) in the center of the stacks were chosen for colocalization analysis. The Pearson’s correlation coefficient (PCC) was quantified with the Image CorrelationJ 1o plugin. To extract information about the relative ratio of FtsZ/FtsA molecules (slope of linear regression), we also used the Image CorrelationJ 1o plugin. As an output, the plugin provides a scatterplot of FtsZ vs FtsA intensities, to which we fitted a linear slope y=k⋅x+d , where k is the slope and d the offset. The slope was used as an estimate for the ratio of FtsA molecules below FtsZ filaments.

FtsZ [3] = conditions: His-tagged FtsA; remark: listed apart in the source
Procedure: as §1, §2
Treadmilling dynamics, were quantified using an automated image analysis protocol previously developed by our group. To visualize colocalization of the co-treadmilling FtsZ & FtsA filaments, we used dual-colour videos obtained at an acquisition rate of one frame per 2 s. The two channels were aligned using FIJI’s 3TP align plugin. Both channels were then subjected to the image subtraction protocol and colocalization was measured as described above.

[4] = 0.60% Tris NTA, Exp. 1 (statistical analysis)
[5] = 0.60% Tris NTA, Exp. 2 (statistical analysis)
[6] = 0.80% Tris NTA, Exp. 1 (statistical analysis)
[7] = 0.80% Tris NTA, Exp. 3 (statistical analysis)
[8] = 1.00% Tris NTA, Exp. 1 (statistical analysis)
[9] = 1.00% Tris NTA, Exp. 2 (statistical analysis)
[10] = 1.00% Tris NTA, Exp. 3 (statistical analysis)
[11] = 2.00% Tris NTA, Exp. 1 (statistical analysis)
[12] = 2.00% Tris NTA, Exp. 2 (statistical analysis)
[13] = 2.00% Tris NTA, Exp. 3 (statistical analysis)
[14] = […] Tris NTA, Exp. 1 (statistical analysis)
[15] = […] Tris NTA, Exp. 2 (statistical analysis)
[16] = […] Tris NTA, Exp. 3 (statistical analysis)

In the case of “FtsA WT: wild-type E. coli actin-homologue FtsA, membrane anchor of FtsZ”, the “Off binding rate, mean” value ([1]; 0.1 µM FtsA + FtsN&Z) is reported as 0.018 s, the “Off binding rate, mean” value ([1]; 0.1 µM FtsA + FtsN) is reported as 0.032 s and the “Off binding rate, mean” value ([1]; 0.1 µM FtsA + FtsZ) is reported as 0.0428 s. For the same substance, the “Off binding rate, mean” value ([1]; 0.1 µM FtsA alone) was 0.0544 s, the “Off binding rate, mean” value ([1]; 0.2 µM FtsA + FtsN&Z) was 0.0128 s and the “Off binding rate, mean” value ([1]; 0.2 µM FtsA + FtsN) was 0.026 s. The “Off binding rate, mean” value ([1]; 0.2 µM FtsA + FtsZ) was 0.0502 s, the “Off binding rate, mean” value ([1]; 0.2 µM FtsA alone) was 0.0443 s and the “Off binding rate, mean” value ([1]; 0.4 µM FtsA + FtsN&Z) was 0.0174 s. The “Off binding rate, mean” value ([1]; 0.4 µM FtsA + FtsN) was 0.0196 s, the “Off binding rate, mean” value ([1]; 0.4 µM FtsA + FtsZ) was 0.0502 s and the “Off binding rate, mean” value ([1]; 0.4 µM FtsA alone) was 0.0375 s. The “membrane exchange (off-rate)” value ([1]; 0.4 µM FtsA, p-value 6.73 × 10^−6) was 0.04 ± 0.01 s⁻¹, the “Off binding rate, mean” value ([1]; 0.8 µM FtsA + FtsN&Z) was 0.0278 s and the “Off binding rate, mean” value ([1]; 0.8 µM FtsA + FtsN) was 0.0277 s. For the same substance, the “Off binding rate, mean” value ([1]; 0.8 µM FtsA + FtsZ) was 0.0562 s, the “Off binding rate, mean” value ([1]; 0.8 µM FtsA alone) was 0.0396 s and the Off binding rate ([1]; Fig. S3i/S3j, 0.10 µM FtsA, replicate 1) was 0.0471 s⁻¹. It also gave an Off binding rate ([1]; Fig. S3i/S3j, 0.10 µM FtsA, replicate 2) of 0.024 s⁻¹, an Off binding rate ([1]; Fig. S3i/S3j, 0.10 µM FtsA, replicate 3) of 0.0306 s⁻¹ and an Off binding rate ([1]; Fig. S3i/S3j, 0.10 µM FtsA, replicate 4) of 0.0374 s⁻¹. It also gave an Off binding rate ([1]; Fig. S3i/S3j, 0.10 µM FtsA, summary value) of 0.0544 s⁻¹, an Off binding rate ([1]; Fig. S3i/S3j, 0.20 µM FtsA, summary value) of 0.0443 s⁻¹ and an Off binding rate ([1]; Fig. S3i/S3j, 0.40 µM FtsA, summary value) of 0.0375 s⁻¹. It also gave an Off binding rate ([1]; Fig. S3i/S3j, 0.80 µM FtsA, summary value) of 0.0396 s⁻¹, an Off binding rate ([1]; Fig. S3m, AMP PNP, 0.10 µM FtsA, replicate 1) of 0.0505 s⁻¹ and an Off binding rate ([1]; Fig. S3m, AMP PNP, 0.10 µM FtsA, replicate 2) of 0.0348 s⁻¹. For the same substance, the Off binding rate ([1]; Fig. S3m, AMP PNP, 0.20 µM FtsA, replicate 1) was 0.0493 s⁻¹, the Off binding rate ([1]; Fig. S3m, AMP PNP, 0.20 µM FtsA, replicate 2) was 0.0628 s⁻¹ and the Off binding rate ([1]; Fig. S3m, AMPPNP, 0.10 µM FtsA, summary value) was 0.04 s⁻¹. The Off binding rate ([1]; Fig. S3m, AMPPNP, 0.20 µM FtsA, summary value) was 0.06 s⁻¹, the Off binding rate ([1]; Fig. S3m, AMPPNP, 0.40 µM FtsA, summary value) was 0.08 s⁻¹ and the Off binding rate ([1]; Fig. S3m, AMPPNP, 0.80 µM FtsA, summary value) was 0.06 s⁻¹. The Off binding rate ([1]; Fig. S3m, ATP, 0.10 µM FtsA, summary value) was 0.05 s⁻¹, the Off binding rate ([1]; Fig. S3m, ATP, 0.20 µM FtsA, summary value) was 0.04 s⁻¹ and the Off binding rate ([1]; Fig. S3m, ATP, 0.40 µM FtsA, summary value) was 0.04 s⁻¹. It also gave an Off binding rate ([1]; Fig. S3m, ATP, 0.80 µM FtsA, summary value) of 0.04 s⁻¹, an Off binding rate ([1]; Fig. S3m, ATPgS, 0.10 µM FtsA, summary value) of 0.0254 s⁻¹ and an Off binding rate ([1]; Fig. S3m, ATPgS, 0.20 µM FtsA, summary value) of 0.0233 s⁻¹. It also gave an Off binding rate ([1]; Fig. S3m, ATPgS, 0.40 µM FtsA, summary value) of 0.0157 s⁻¹, an Off binding rate ([1]; Fig. S3m, ATPgS, 0.80 µM FtsA, summary value) of 0.0252 s⁻¹ and a membrane off-rate ([1]; in the presence of FtsZ) of roughly 0.05 s⁻¹. The “time bound relative to FtsZ monomers (times longer)” value ([1]; in the presence of FtsZ) was 2–4 times, the PCC (FtsZ [2]; [4]) was 0.58 and the PCC (FtsZ [2]; [5]) was 0.73. For the same substance, the “PCC, Mean” value (FtsZ [2]; 0.60% Tris NTA, n = 2 (WT), 3 (R286W), sd 0.07, 0.08, p-value 0.39) was 0.65, the PCC (FtsZ [2]; [6]) was 0.66 and the PCC (FtsZ [2]; 0.80% Tris NTA, Exp. 2 (statistical analysis)) was 0.70. The PCC (FtsZ [2]; [7]) was 0.68, the “PCC, Mean” value (FtsZ [2]; 0.80% Tris NTA, n = 3, 3, sd 0.0141 (WT), 0.0648 (R286W), p-value 0.61) was 0.68 and the PCC (FtsZ [2]; [8]) was 0.53. For the same substance, the PCC (FtsZ [2]; [9]) was 0.60, the PCC (FtsZ [2]; [10]) was 0.73 and the PCC (FtsZ [2]; 1.00% Tris NTA, Exp. 4 (statistical analysis)) was 0.53. For the same substance, the “PCC, Mean” value (FtsZ [2]; 1.00% Tris NTA, n = 4 (WT), 3 (R286W), sd 0.08, 0.0316, p-value 6.25E-02) was 0.60, the PCC (FtsZ [2]; [11]) was 0.12 and the PCC (FtsZ [2]; [12]) was 0.14. For the same substance, the PCC (FtsZ [2]; [13]) was 0.16, the “PCC, Mean” value (FtsZ [2]; 2.00% Tris NTA, n = 3, 3, sd 0.0143 (WT), 0.04 (R286W), p-value 1.59E-04) was 0.14 and the PCC (FtsZ [2]; [14]) was 0.16. For the same substance, the PCC (FtsZ [2]; [15]) was 0.0429, the PCC (FtsZ [2]; [16]) was 0.18 and the “PCC, Mean” value (FtsZ [2]; […] Tris NTA, n = 3, 3, sd 0.06 (WT), 0.02 (R286W), p-value 3.86E-04) was 0.13. The “Differential PCC” value (FtsZ [3]; [4]) was 0.51, the “Differential PCC” value (FtsZ [3]; [5]) was 0.47 and the “Differential PCC, Mean” value (FtsZ [3]; 0.60% Tris NTA, n = 2 (WT), 3 (R286W), sd 0.02, 0.057, p-value 0.67) was 0.49. The “Differential PCC” value (FtsZ [3]; [6]) was 0.49, the “Differential PCC” value (FtsZ [3]; [7]) was 0.47 and the “Differential PCC, Mean” value (FtsZ [3]; 0.80% Tris NTA, n = 3, 3, sd 0.05 (WT), 0.0749 (R286W), p-value 0.13) was 0.45. The “Differential PCC” value (FtsZ [3]; [8]) was 0.49, the “Differential PCC” value (FtsZ [3]; [9]) was 0.28 and the “Differential PCC” value (FtsZ [3]; [10]) was 0.23. For the same substance, the “Differential PCC, Mean” value (FtsZ [3]; 1.00% Tris NTA, n = 3, 3, sd 0.12 (WT), 0.0377 (R286W), p-value 5.89E-02) was 0.33, the “Differential PCC” value (FtsZ [3]; [11]) was 0.06 and the “Differential PCC” value (FtsZ [3]; [12]) was 0.14. For the same substance, the “Differential PCC” value (FtsZ [3]; [13]) was 0.0238, the “Differential PCC, Mean” value (FtsZ [3]; 2.00% Tris NTA, n = 3, 3, sd 0.0469 (WT), 0.04 (R286W), p-value 2.27E-03) was 0.0739 and the “Differential PCC” value (FtsZ [3]; [14]) was 0.05. The “Differential PCC” value (FtsZ [3]; [15]) was 0.035, the “Differential PCC” value (FtsZ [3]; [16]) was 0.12 and the “Differential PCC, Mean” value (FtsZ [3]; […] Tris NTA, n = 3, 3, sd 0.0371 (WT), 0.02 (R286W), p-value 5.70E-04) was 0.07.
